According to publication PMC6813295, “A tumour-selective cascade activatable self-detained system for drug delivery and cancer imaging” (Nature Communications, 2019):
Where a SMILES comes first, the peptide text is derived from it. The star is where a group is joined. X1 = CC1(C)C(=CC=C2CCCC(C=CC3=[N+](CCCCCC(=O)O)c4ccccc4C3(C)C)=C2*)N(CCCCCC(=O)O)c2ccccc21

Key:
[1] = Self-assembly behaviour in water (CD, TEM); format: physicochemical
Protocol: (§1) Fig. 2 The structure conformations and self-assembly properties of molecule 1 in aqueous solution. a Illustration of the self-assembly strategy of molecule 1. b CD spectra of molecule 1 and molecule 4 in deionized water at a concentration of 1 μM. c FTIR spectra of molecule 1 in a monomeric state and molecule 4 in a fibrous assembled state. The arrows identify the typical characteristic peaks of the antiparallel β-sheet structure. d TEM image of self-assembled β-sheet nanofibrils of molecule 1 after treatment with caspase-3 (substrate-to-enzyme ratio of 1 μM/U) in HEPES buffer (50 mM, pH 7.4) for 2 h. The manual measurement of the nanofibril diameter is shown in the zoomed image, and the computational simulation result for the length of molecule 4 is inserted. e WAXS and computational simulation results of the β-sheet self-assemblies (molecule 4) identified the β-sheet and laminate spacing of the structures. f The concentration-dependent CD spectra of molecule 4 in the concentration range of 0.5–10 μM. g Time-dependent TEM images of molecule 4 from 10 min to 12 h for monitoring the growth process of the nanofibrous structures. h Temperature-dependent CD intensity changes at 220 nm of molecules 1 and 4 with a heating rate of 1 °C/min and an equilibrium period of 30 s to reveal the self-assembly mechanisms. Scale bar: 100 nm […]
microscopy (UltraVIEW VoX). […]

[2] = molecular target: T1, recombinant human caspase-3 (Homo sapiens, UniProt P42574); assay: Caspase-3 cleavage (HPLC) and induced self-assembly (TEM) in HEPES buffer; format: biochemical; details: caspase-3 2 h, substrate-to-enzyme ratio 1 μM/U, HEPES buffer 50 mM pH 7.4, TEM
T1 construct: purchased Sigma-Aldrich Chemical Co
T1 sequence (P42574 29-175 limits assumed): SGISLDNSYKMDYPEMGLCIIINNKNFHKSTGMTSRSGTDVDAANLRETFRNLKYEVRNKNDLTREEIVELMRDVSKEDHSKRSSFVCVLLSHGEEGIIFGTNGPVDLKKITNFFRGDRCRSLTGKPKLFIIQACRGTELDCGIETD
T1 sequence (P42574 176-277 limits assumed): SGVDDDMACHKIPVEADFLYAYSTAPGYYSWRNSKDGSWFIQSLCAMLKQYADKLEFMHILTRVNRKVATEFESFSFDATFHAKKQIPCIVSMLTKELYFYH
Protocol: as §1

[3] = tested on: healthy female Balb/c nude mice; assay: Toxicology evaluation (blood biochemistry, haematology, histology); format: in vivo, mouse; details: 14 mg/kg
Protocol: The healthy female Balb/c nude mice (6–8 weeks, n = 3) treated with molecule 1 was systematically investigated over 15 days. The mice were sacrificed after treatment with molecule 1 at a dose of 14 mg/kg on the 3rd, 7th and 15th day for blood collection. The blood biochemistry and haematology analyses were performed by Vital River Laboratory Animal Technology Co. Ltd. The histology evaluation was performed by Servicebio. All the toxicology evaluation was carried out in blind manner. […]
mg/kg, n=3) at 3, 7 and 15 d. The control group was healthy mice group without treatment. a, As major indicators of liver function, alanine aminotransferase (ALT), alkaline phosphatase (ALP) and aspartate aminotransferase (AST) levels were evaluated at different time point s. b, Total Protein (TP), albumin (ALB) and globulin (GLO) concentration and A/G (ALB/GLO) levels were evaluated at different time points. c, The creatinine (CRE) and blood urea nitrogen (BUN) levels, important indicators of kidney function, were evaluated at different time points. d, Time-course changes of haematology data, including i) white blood cells, ii) red blood cells, iii) haemoglobin, iv) mean corpuscular volume, v) mean corpuscular haemoglobin, vi) mean corpuscular haemoglobin concentration, vii) platelets and viii) haematocrit after treated with molecule 1 (14 mg/kg) treatment comparing with normal range (green backgrounds). Data are presented as mean ± s.d.
(n=3). e, Histology evaluation of the major organs (liver, spleen, kidney, heart and lung) were collected from the control group without treatment and molecule 1 treated (12 h post injection) group. Scale bars, 100 μm.

With CC[C@H](C)[C@H](NC(=O)[C@@H]1CCCN1C(=O)[C@@H](NC(=O)[C@H](C)N)C(C)C)C(=O)N[C@@H](C)C(=O)N[C@@H](CCC(N)=O)C(=O)N[C@@H](CCCCN)C(=O)N[C@@H](CC(=O)O)C(=O)N[C@@H](CCC(=O)O)C(=O)N[C@H](C(=O)N[C@@H](CC(=O)O)C(=O)N[C@@H](CCCCN)C(=O)N[C@@H](CC(C)C)C(=O)N[C@H](C(=O)N[C@@H](Cc1ccccc1)C(=O)N[C@@H](Cc1ccccc1)C(=O)N[C@@H](C)C(=O)N[C@@H](CCC(=O)O)C(=O)N[C@@H](CSC1=C(C=CC2=[N+](CCCCCC(=O)O)c3ccccc3C2(C)C)CCCC1=CC=C1N(CCCCCC(=O)O)c2ccccc2C1(C)C)C(=O)NCC(=O)O)C(C)C)C(C)C [molecule 1] (H-AVPIAQKDEVDKLVFFAEC(X1)G-OH) the “secondary structure by CD” value ([1]; 1 μM in deionized water) was “random coiled conformation”, the “state in water (dissolved or fibrous structures; TEM, CD)” value ([1]; deionized water, same conditions, TEM 50 μM, from 1% HFIP, 24 h) was “well-dissolved” and the “diameter of nanofibrils after incubation with caspase-3” value [2] was “approximately 5.8 ± 0.6 nm”. For the same compound, the “histology evaluation of organs” value [3] was “slightly enlarged splenic corpuscle and expanded germinal centres”, the “signs of acute toxicity within 15 days” value [3] was “did not notice any obvious signs of acute toxicity” and the “creatinine (CRE) and blood urea nitrogen (BUN) levels” value ([3]; days 3, 7 and 15, n = 3) was “within the normal range”. The “liver function markers (ALT, AST, ALP, albumin concentration)” value ([3]; days 3, 7 and 15, n = 3) was “within reference normal ranges”.
